The results in this text go back to patent US4120864A, “1,2,4-4H-triazole derivatives” (Rohm and Haas Company, priority 1972, dated 1978).

For test [1], the system named is wheat leaf rust, Puccinia recondita. Briefly: whole plant or invertebrate. In kind it is in vivo. To be noted: foliar; for pest or weed control at 280.212 g/ha: read-out: % Control (without rain), foliar, 0.25 lb.; for pest or weed control at 1120.85 g/ha: read-out: % Control (without rain), foliar, 1 lb.
For test [2] the test system is unchanged. Put plainly: whole plant or invertebrate. It is filed as in vivo. The settings on record: foliar; for pest or weed control at 280.212 g/ha: read-out: % Control (with 1" of rain), foliar, 0.25 lb., 1" of rain; for pest or weed control at 1120.85 g/ha: read-out: % Control (with 1" of rain), foliar, 1 lb., 1" of rain.

Where a name gives a salt, the structure may show the parent alone. Read-outs that look alike come from different tables or passages of the source.

With `CCCCn1cnnc1SC(=O)c1cccc([N+](=O)[O-])c1` [Example 122, 3-(3-nitrobenzoylmercapto)-4-n-butyl-1,2,4-triazole], the pest or weed control at 280.212 g/ha in test [1] and in test [2] was 100% each time. In addition, the pest or weed control at 1120.85 g/ha in test [1] and in test [2] was 100% each time.
For `COc1ccc(C(=O)Sc2nncn2-c2ccccc2)cc1` [Example 129, 3-(4-methoxybenzoylmercapto)-4-phenyl-1,2,4-triazole], in test [1], the pest or weed control at 280.212 g/ha worked out at 100% and the pest or weed control at 1120.85 g/ha is 100%. Further, in test [2], the pest or weed control at 280.212 g/ha was 100% and the pest or weed control at 1120.85 g/ha was found to be 99%.
With `Clc1ccc(-n2cnnc2)c(Cl)c1` [Example 56, 4-(2,4-dichlorophenyl)-1,2,4-triazole], the figures for the pest or weed control at 280.212 g/ha in test [1] and in test [2] were 90% and 0%, respectively. Further, the results for the pest or weed control at 1120.85 g/ha in test [1] and in test [2] were 65% and 5%, respectively.
Take `COC(=O)c1nnc(S)n1C` [Example 96, 3-mercapto-4-methyl-5-methoxycarbonyl-1,2,4-triazole]: in test [1], the pest or weed control at 280.212 g/ha is 90% and the pest or weed control at 1120.85 g/ha was determined as 98%. In test [2], the pest or weed control at 280.212 g/ha came out at 0% and the pest or weed control at 1120.85 g/ha amounted to 5%.
`c1ccc(-n2cnnc2)cc1` [Example 54, 4-phenyl-1,2,4-triazole]: in test [1], the pest or weed control at 280.212 g/ha was 75% and the pest or weed control at 1120.85 g/ha was 90%. In test [2], the pest or weed control at 280.212 g/ha was 25% and the pest or weed control at 1120.85 g/ha came to 85%.
For `OCCCCn1cnnc1` [Example 21, 4-(4-hydroxybutyl)-1,2,4-triazole], in test [1], the pest or weed control at 280.212 g/ha worked out at 10% and the pest or weed control at 1120.85 g/ha came out at 10%. In test [2], the pest or weed control at 280.212 g/ha was 0% and the pest or weed control at 1120.85 g/ha stood at 0%.
On to `CCN(CC)CCn1cnnc1` [Example 35], for which, in test [1], the pest or weed control at 280.212 g/ha was 30% and the pest or weed control at 1120.85 g/ha is 40%. Also, in test [2], the pest or weed control at 280.212 g/ha turned out to be 0% and the pest or weed control at 1120.85 g/ha was determined as 10%.
On the same counts, the results for `CCCCCCCCCCn1cnnc1S` [Example 82, 3-mercapto-4-n-decyl-1,2,4-triazole] are 61%, 78%, 46% and 72%.
For `c1csc(-n2cnnc2)n1` [Example 68, 4-(2-thiazyl)-1,2,4-triazole], the pest or weed control at 280.212 g/ha in test [1] worked out at 66%; in test [2] it was 67%. Also, the pest or weed control at 1120.85 g/ha in test [1] turned out to be 73%; in test [2] it was 96%.
Consider `CC(C)(C)n1cnnc1` [Example 6, 4-t-butyl-1,2,4-triazole], for which, in test [1], the pest or weed control at 280.212 g/ha worked out at 100% and the pest or weed control at 1120.85 g/ha worked out at 100%. Also, in test [2], the pest or weed control at 280.212 g/ha stood at 95% and the pest or weed control at 1120.85 g/ha stood at 95%.
For the compound `Clc1ccc(Cn2cnnc2)c(Cl)c1` [Example 52, 4-(2,4-dichlorobenzyl)-1,2,4-triazole], in test [1], the pest or weed control at 280.212 g/ha was determined as 0% and the pest or weed control at 1120.85 g/ha was 20%. In test [2], the pest or weed control at 280.212 g/ha was 5% and the pest or weed control at 1120.85 g/ha turned out to be 10%.
For `CC(C)(C)CC(C)(C)n1cnnc1S` [Example 81, 3-mercapto-4-t-octyl-1,2,4-triazole], in that order: 100%, 100%, 53% and 86%.
In the case of `CC(C)OCCCn1cnnc1` [Example 48, 4-(3-isopropoxypropyl)-1,2,4-triazole], in test [1], the pest or weed control at 280.212 g/ha is 0% and the pest or weed control at 1120.85 g/ha is 0%. Besides, in test [2], the pest or weed control at 280.212 g/ha was found to be 0% and the pest or weed control at 1120.85 g/ha turned out to be 0%.
Turning to `c1ccc(-n2cnnc2)nc1` [Example 62, 4-(2-pyridyl)-1,2,4-triazole], in test [1], the pest or weed control at 280.212 g/ha amounted to 100%. For the same compound, the pest or weed control at 1120.85 g/ha was determined as 100% in test [1] and 99% in test [2].
For `CCCCCn1cnnc1` [Example 7, 4-n-pentyl-1,2,4-triazole], the pest or weed control at 280.212 g/ha in test [1] and in test [2] was 100% throughout. Also, the pest or weed control at 1120.85 g/ha in test [1] and in test [2] was 100% in each case.
`Cn1c(O)nnc1S` [Example 86, 3-mercapto-4-methyl-5-hydroxy-1,2,4-triazole]: in test [1], the pest or weed control at 280.212 g/ha was found to be 96% and the pest or weed control at 1120.85 g/ha was determined as 99%. For the same compound, in test [2], the pest or weed control at 280.212 g/ha was determined as 63% and the pest or weed control at 1120.85 g/ha stood at 63%.
Regarding `Cn1c(S)nnc1C(=O)O` [Example 93, 3-mercapto-4-methyl-5-carboxy-1,2,4-triazole], in test [1], the pest or weed control at 280.212 g/ha came out at 65% and the pest or weed control at 1120.85 g/ha was 94%. In test [2], the pest or weed control at 280.212 g/ha is 0% and the pest or weed control at 1120.85 g/ha stood at 0%.
With `CCCCn1c(O)nnc1S` [Example 87, 3-mercapto-4-n-butyl-5-hydroxy-1,2,4-triazole], the values for the pest or weed control at 280.212 g/ha in test [1] and in test [2] were 15% and 0%, respectively. Further, the pest or weed control at 1120.85 g/ha in test [1] came to 49%; in test [2], 0%.
On to `CCCCCCCCn1cnnc1S` [Example 80, 3-mercapto-4-n-octyl-1,2,4-trizole], for which, in test [1], the pest or weed control at 280.212 g/ha amounted to 100% and the pest or weed control at 1120.85 g/ha was 100%. Also, in test [2], the pest or weed control at 280.212 g/ha worked out at 51% and the pest or weed control at 1120.85 g/ha was 65%.
For the compound `O=[N+]([O-])c1cccc(-n2cnnc2)c1` [Example 58, 4-(3-nitrophenyl)-1,2,4-triazole], the pest or weed control at 280.212 g/ha in test [1] stood at 80%; in test [2], 0%. For the same compound, the pest or weed control at 1120.85 g/ha in test [1] came to 80%; in test [2] it was 0%.
`CC=CCn1cnnc1` [Example 14, 4-(2-butenyl)-1,2,4-triazole]: in test [1], the pest or weed control at 280.212 g/ha worked out at 100% and the pest or weed control at 1120.85 g/ha was determined as 100%. In addition, in test [2], the pest or weed control at 280.212 g/ha was 99% and the pest or weed control at 1120.85 g/ha was 100%.
For the compound `CCCCCCCCCCSc1nncn1CCCC` [Example 104, 3-n-decylmercapto-4-butyl-1,2,4-triazole], in test [1], the pest or weed control at 280.212 g/ha turned out to be 80% and the pest or weed control at 1120.85 g/ha was found to be 98%. Besides, in test [2], the pest or weed control at 280.212 g/ha came out at 45% and the pest or weed control at 1120.85 g/ha worked out at 98%.
Consider `Sc1nncn1-c1ccccc1` [Example 85, 3-mercapto-4-phenyl-1,2,4-triazole], for which, in test [1], the pest or weed control at 280.212 g/ha came out at 80% and the pest or weed control at 1120.85 g/ha is 85%. Besides, in test [2], the pest or weed control at 280.212 g/ha came to 72% and the pest or weed control at 1120.85 g/ha was 90%.
As for `COc1ccc(Cn2cnnc2)cc1` [Example 50, 4-(4-methoxybenzyl)-1,2,4-triazole], the pest or weed control at 280.212 g/ha in test [1] is 100%. The pest or weed control at 1120.85 g/ha in test [2] turned out to be 100%.
Regarding `C=CCOCCSc1nncn1CCCC` [Example 108, 3-(2-allyloxyethylmercapto)-4-n-butyl-1,2,4-triazole], in test [1], the pest or weed control at 280.212 g/ha came to 35% and the pest or weed control at 1120.85 g/ha stood at 85%. Besides, in test [2], the pest or weed control at 280.212 g/ha turned out to be 25% and the pest or weed control at 1120.85 g/ha was found to be 40%.
As for `CCCCCCCCCCn1cnnc1` [Example 12, 4-n-decyl-1,2,4-triazole], in test [1], the pest or weed control at 280.212 g/ha turned out to be 57% and the pest or weed control at 1120.85 g/ha stood at 100%. Moreover, in test [2], the pest or weed control at 280.212 g/ha was found to be 48% and the pest or weed control at 1120.85 g/ha came out at 78%.
In the case of `c1nncn1-n1cnnc1` [Example 65], in test [1], the pest or weed control at 280.212 g/ha amounted to 64% and the pest or weed control at 1120.85 g/ha came to 78%.
Take `O=C(O)CCCn1cnnc1` [Example 44, 4-(3-carboxypropyl)-1,2,4-triazole]: the pest or weed control at 280.212 g/ha came out at 20% in test [1] and 35% in test [2]. The figures for the pest or weed control at 1120.85 g/ha in test [1] and in test [2] were 75% and 5%, respectively.
Turning to `CCCCn1cnnc1SC(=O)c1cc(Cl)cc(Cl)c1` [Example 120, 3-(3,5-dichlorobenzoylmercapto)-4-n-butyl-1,2,4-triazole], in test [1], the pest or weed control at 280.212 g/ha worked out at 100% and the pest or weed control at 1120.85 g/ha was found to be 100%. For the same compound, in test [2], the pest or weed control at 280.212 g/ha is 98% and the pest or weed control at 1120.85 g/ha worked out at 98%.
Take `Oc1nnc(S)n1-c1ccccc1` [Example 88, 3-mercapto-4-phenyl-5-hydroxy-1,2,4-triazole]: the pest or weed control at 280.212 g/ha was 73% in test [1] and 98% in test [2]. Moreover, the pest or weed control at 1120.85 g/ha in test [1] worked out at 80%; in test [2] it was 100%.
Take `c1ccc(CCn2cnnc2)cc1` [Example 33, 4-phenethyl-1,2,4-triazole]: in test [1], the pest or weed control at 280.212 g/ha stood at 100% and the pest or weed control at 1120.85 g/ha was determined as 100%.
Consider `Clc1cccc(-n2cnnc2)c1` [Example 55, 4-(3-chlorophenyl)-1,2,4-triazole hydrochloride], for which, in test [1], the pest or weed control at 280.212 g/ha came to 100% and the pest or weed control at 1120.85 g/ha was determined as 100%.
Turning to `O=C(Sc1nncn1-c1ccccc1)c1cccc([N+](=O)[O-])c1` [Example 130, 3-(3-nitrobenzoylmercapto)-4-phenyl-1,2,4-triazole], in test [1], the pest or weed control at 280.212 g/ha is 97% and the pest or weed control at 1120.85 g/ha amounted to 100%.
Turning to `c1nncn1N1CCOCC1` [Example 64, 4-morpholino-1,2,4-triazole], in test [1], the pest or weed control at 280.212 g/ha stood at 88% and the pest or weed control at 1120.85 g/ha came to 94%.
